# Test: Drug release from heat-molded pellets of Compound 1 in PBS at 37° C. (HPLC)
# Assay type: physicochemical
# Conditions: FIG. 2
# Description: Heat-molded pellets from Compound 1 (^˜1 mm×1 mm) were placed in 20 mL glass vials and 2 mL of the release buffer phosphate buffered saline (PBS) was added.
compound,measurement,setting,value
"C[C@@H]1C[C@H]2[C@@H]3CCC4=CC(=O)C=C[C@]4(C)[C@@]3(F)[C@@H](O)C[C@]2(C)[C@@]1(O)C(=O)COC(=O)OCCOCCOCCOC(=O)OCC(=O)[C@@]1(O)[C@H](C)C[C@H]2[C@@H]3CCC4=CC(=O)C=C[C@]4(C)[C@@]3(F)[C@@H](O)C[C@@]21C [Compound 1, dexamethasone-triethylene glycol-dexamethasone]",dexamethasone release profile (cumulative drug release),heat-molded pellets ~1 mm×1 mm,"zero-order (e.g., near zero order) release"
same,duration of zero-order release,heat-molded pellets,at least 100 days
